In US4057644A, “Active derivatives of methylamine in therapeutic compositions and methods of use” (priority 1976, dated 1977):

How the values were obtained:
[1] = tested on: neuroleptic-induced catatonia (prochlorperazine); test: Inhibition of neuroleptic-induced catatonia; type: in vivo, rat (male, OFA strain); details: rat, oral
Experimental: The blocking of dopaminergic receptors by neuroleptics in the extra-pyramidal system induces catatonia in the rat. Catatonia is differentiated from sedative properties by means of the test used hereabove for reserpine-induced catatonia. The same system of scoring was also employed in the present case.
An oral dose of the compound to be studied in aqueous solution was administered to batches of 10 male rats of the OFA strain weighing about 150 to 200 g.
Three hours after the injection of this latter compound, catatonia was measured. An identical trial was also carried out with control animals which received prochlorperazine but none of the compounds under study.

mice = details: for Index LD50/ED20-30: LD50 mice oral / dose giving 20 to 30% inhibition of catatonia; for Index LD50/ED100: LD50 mice oral / dose giving 100% inhibition of catatonia
in vivo = details: mouse, po
[2] = tested on: reserpine-induced catatonia; test: Inhibition of reserpine-induced catatonia; type: in vivo, rat (male, OFA strain); details: rat, oral
Experimental: Ater sufficient doses of reserpine have been administered to the rat, a series of symptoms occur, more particularly ptosis, catatonia and a drop in central temperature. These symptoms are caused by the depletion of the intrangranular reserve pool of biogenetic amines at the synaptic terminals.
An oral dose of the compound to be studied in aqueous solution was administered to batches of 10 male rats of the OFA strain weighing about 150 to 200 g. Thirty minutes later a dose of 5 mg/kg of reserpine was given by intraperitoneal route. Three hours after the injection of reserpine, the animals were suspended by the four paws to a horizontally stretched wire fixed at 15 cm from the ground. The catatonic animals were those which maintained the position so given for at least 30 seconds. […] The maximum score was therefore 10 per batch. An identical trial was undertaken with control animals which received reserpine but none of the compounds being studied.
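Wherever Index LD50/ED100 is given: LD50 part of every column derived from compounds dosed in aqueous solution, deaths followed over a 10-day observation period after dosing.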
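Wherever Index LD50/ED20-30 is given: LD50 part of every column derived from compounds dosed in aqueous solution, deaths followed over a 10-day observation period after dosing.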
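Wherever LD50 is given: LD50 part of every column derived from compounds dosed in aqueous solution, deaths followed over a 10-day observation period after dosing.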

| SMILES | LD50 at 240 h (in vivo) [mg/kg] | Index LD50/ED100 (mice) | other results |
| --- | --- | --- | --- |
| CCCC(N)(CC)CC(C)C (centres unmarked) [Compound 3, 1-Ethyl-1-isobutyl-n-butylamine] |  |  | Inhibition of the neuroleptic-induced catatonia ([1]; 20 mg/kg): 3 (represents 70 to 80% inhibition of catatonia in comparison with the controls (namely a score of 2 or 3 per studied batch)) |
| CCCC(C)(N)CC(C)CC (centres unmarked) [Compound 6, 1,3-Dimethyl-1-n-propyl-n-pentylamine] |  |  | Index LD50/ED20-30 (mice): > 25 |
| CCCCC(C)(N)CC(C)C (centres unmarked) [Compound 8, 1-Methyl-1-isobutyl-n-pentylamine] |  |  | activity compared with amantadine (neuroleptic-induced catatonia) ([1]; versus amantadine): twice as active |
| CCCCCC(C)(N)CCC (centres unmarked) [Compound 9, 1-Methyl-1-n-propyl-n-hexylamine] |  |  | Index LD50/ED20-30 (mice): 87 |
| CCCC(CCC)(CCC)N1CCC1 [Compound 29, N,n-trimethylene-1,1-di-n-propyl-n-butylamine] | 65 | 10.8 |  |
| C=CCC(CCC)(CCC)NC [Compound 32, N-methyl-1-n-propyl-1-alkyl-n-butylamine] | 170 |  | Inhibition of reserpine-induced catatonia ([2]; 5 mg/kg): 2 (represents 50% inhibition of catatonia in comparison with the controls (namely a score of 5 per studied batch)) |
| CCCC(CCC)(CCC)NCC [Compound 33, N-ethyl-1,1-di-n-propyl-n-butylamine] | 100 | 16.5 | Inhibition of reserpine-induced catatonia ([2]; 6 mg/kg): 2 (represents 50% inhibition of catatonia in comparison with the controls (namely a score of 5 per studied batch)) |
| CCCC(CCC)(CCC)NC(C)C [Compound 34, N-isopropyl-1,1-di-n-propyl-n-butylamine] |  | 21.6 | Inhibition of reserpine-induced catatonia ([2]; 6.5 mg/kg): 2 (represents 50% inhibition of catatonia in comparison with the controls (namely a score of 5 per studied batch)) |
| C=CCNC(CCC)(CCC)CCC [Compound 35, N-allyl-1,1-di-n-propyl-n-butylamine] | 130 | 21 | Inhibition of reserpine-induced catatonia ([2]; 6 mg/kg): 2 (represents 50% inhibition of catatonia in comparison with the controls (namely a score of 5 per studied batch)) |
| C#CCNC(CCC)(CCC)CCC [Compound 36, N-propargyl-1,1-di-n-propyl-n-butylamine] | > 150 |  | Index LD50/ED20-30 (mice): > 25 |
| CCCC(CCC)(CC(C)C)N(C)C [Compound 37, N,n-dimethyl-1-n-propyl-1-isobutyl-n-butylamine] | 110 |  |  |
| CCCC(CCC)(CCC)N(C)CC [Compound 38, N-methyl-N-ethyl-1,1-di-n-propyl-n-butylamine] | > 120 |  | Inhibition of reserpine-induced catatonia ([2]; 6.5 mg/kg): 2 (represents 50% inhibition of catatonia in comparison with the controls (namely a score of 5 per studied batch)) |
| C#CCN(CC#C)C(CCC)(CCC)CCC [Compound 39, N,n-dipropargyl-1,1-di-n-propyl-n-butylamine] | > 150 |  | Inhibition of reserpine-induced catatonia ([2]; 15 mg/kg): 2 (represents 50% inhibition of catatonia in comparison with the controls (namely a score of 5 per studied batch)) |
| C=NC(CCC)(CCC)CCC [Compound 41] | > 150 | 27 |  |
| CC=NC(CCC)(CCC)CCC [Compound 42, N-ethylidene-1,1-di-n-propyl-n-butylamine] | 120 | 20 |  |
| CCCC(CCC)(CCC)N(CCO)CCO [Compound 44, N,n-bis-(2-Hydroxyethyl)-1,1-di-n-propyl-n-butylamine] |  |  | Inhibition of the neuroleptic-induced catatonia ([1]; 15 mg/kg): 1 (represents 20 to 30% inhibition of catatonia in comparison with the controls (namely a score of 7 to 8 per studied batch)) |
| CCCC(CCC)(CCC)NCCCO [Compound 45, N-(3-hydroxy-n-propyl)-1,1-di-n-propyl-n-butylamine] | 140 |  | Inhibition of reserpine-induced catatonia ([2]; 14 mg/kg): 2 (represents 50% inhibition of catatonia in comparison with the controls (namely a score of 5 per studied batch)) |
| CCCC(CCC)(CCC)N1CCOCC1 [Compound 46, N,n-(3-oxyapentamethylene)-1,1-di-n-propyl-n-butylamine] | 250 |  | Index LD50/ED20-30 (mice): 31 |
